target: T1, acyl-CoA: cholesterol acyltransferase (ACAT) (Rattus norvegicus, UniProt Q7TQM4); test: ACAT inhibitory activity (labeled cholesterol ester formation from [1-14C]oleoyl-CoA and endogenous cholesterol; microsome fraction of rat tunica mucosa intestini tenuis); format: biochemical, Spregue-Dawley male rat; conditions: 10^-6 M; read-out: ACAT inhibitory rate (labeled cholesterol ester formation inhibitory rate)
T1 construct: microsome fraction of the tunica mucosa intestini tenuis; from tissue; host or cells: microsome fraction of small-intestinal mucosa, Sprague-Dawley male rat (six weeks old, fasted 20 hours)
T1 sequence (Q7TQM4 1-524): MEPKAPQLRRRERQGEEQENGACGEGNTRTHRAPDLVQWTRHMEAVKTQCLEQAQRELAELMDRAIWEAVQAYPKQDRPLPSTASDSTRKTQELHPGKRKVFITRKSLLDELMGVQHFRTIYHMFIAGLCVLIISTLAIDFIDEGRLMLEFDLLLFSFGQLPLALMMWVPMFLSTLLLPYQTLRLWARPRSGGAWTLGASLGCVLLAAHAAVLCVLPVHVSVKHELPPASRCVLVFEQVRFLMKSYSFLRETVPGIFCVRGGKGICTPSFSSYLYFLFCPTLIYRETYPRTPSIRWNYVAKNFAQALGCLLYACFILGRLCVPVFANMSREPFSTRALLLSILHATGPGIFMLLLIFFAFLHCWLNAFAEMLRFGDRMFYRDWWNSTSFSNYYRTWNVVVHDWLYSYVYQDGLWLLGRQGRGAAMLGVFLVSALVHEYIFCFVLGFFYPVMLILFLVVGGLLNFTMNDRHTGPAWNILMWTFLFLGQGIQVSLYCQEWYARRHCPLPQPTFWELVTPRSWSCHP
Protocol: An enzyme specimen ACAT was prepared from a microsome fraction of the tunica mucosa intestini tenuis of Spregue-Dawley male rat (six week old) which had been subjected to fasting for 20 hours according to the method described in Journal of Lipid Research, 24, 1127 (1982).
ACAT activity was calculated by measuring an amount of a labeled cholesterol ester formed from [1-^14 C]oleoyl-CoA and endogenous cholesterol according to the process of Helgerud et al. [Journal of Lipid Research, 22, 271 (1981)].
ACTA inhibitory activity of compounds tested are shown in Table 1 by a labeled cholesterol ester formation inhibitory rate (%) obtained by addition of the test compounds in an amount of 10^-6 M.

Row | inhibition at 1 µM [%] | SMILES
1 | 94.4 | O=C(Cc1ccc(F)cc1F)Nc1cnc2sc3c(c2c1-c1ccccc1Cl)CCC3 [Example 8, 4-(2-chlorophenyl)-3-(2,4-difluorophenylacetylamino)-6,7-dihydro-5H-cyclopenta-[1',2':5,4]thieno-[2,3-b]pyridine]
2 | 60.2 | Cc1ccccc1-c1c(NC(=O)Nc2ccc(F)cc2F)cnc2sccc12 [Example 9, N-(2,4-difluorophenyl)-N'-[4-(2-methylphenyl)-thieno[2,3-b]pyridin-5-yl]urea]
3 | 95.1 | Cc1cc2c(-c3ccccc3Cl)c(NC(=O)Nc3ccc(F)cc3F)cnc2s1 [Example 10, N-[4-(2-chlorophenyl)-2-methylthieno[2,3-b]pyridin-5-yl]-N'-(2,4-difluorophenyl)urea]
4 | 94.5 | Cc1ccccc1-c1c(NC(=O)Nc2ccc(F)cc2F)cnc2sc(Cl)cc12 [Example 11, N-[2-chloro-4-(2-methylphenyl)thieno[2,3-b]pyridin-5-yl]-N'-[2,4-difluorophenyl)urea]

The next lines start with the compound.

Row | SMILES | inhibition at 1 µM [%]
5 | CCc1cc2c(-c3ccccc3Cl)c(NC(=O)Nc3ccc(F)cc3F)cnc2s1 [Example 1, N-[4-(2-chlorophenyl)-2-ethylthieno[2,3-b]pyridin-5-yl]-N'-(2,4-difluorophenyl)urea] | 98.7
6 | CCc1cc2c(-c3ccccc3Cl)c(NC(=O)C=Cc3cc(OC)c(OC(C)=O)c(OC)c3)cnc2s1 [Example 2, 5-(4-Acetoxy-3,5-dimethoxycinnamoylamino)-4-(2-chlorophenyl)-2-ethylthieno[2,3-b]pyridine] | 74.3
7 | CCc1cc2c(-c3ccccc3Cl)c(NC(=O)Nc3ccc(F)cc3F)c(=O)n(C)c2s1 [Example 3, N-[4-(2-chlorophenyl)-6,7-dihydro-2-ethyl-7-methyl-6-oxothieno[2,3-b]pyridin-5-yl]-N'-(2,4-difluorophenyl)urea] | 99.6
8 | CCc1cc2c(-c3ccccc3Cl)c(NC(=O)Nc3ccc(Cl)cc3)cnc2s1 [Example 4, N-(4-chlorophenyl)-N'-[4-(2-chlorophenyl)-2-ethylthieno[2,3-b]pyridin-5-yl]urea] | 93.6
9 | Cc1sc2ncc(NC(=O)Nc3ccc(F)cc3F)c(-c3ccccc3Cl)c2c1C [Example 5, N-[4-(2-chlorophenyl)-2,3-dimethylthieno[2,3-b]pyridin-5-yl]-N'-(2,4-difluorophenyl)urea] | 93.9
10 | O=C(Nc1ccc(F)cc1F)Nc1cnc2sc3c(c2c1-c1ccccc1Cl)CCC3 [Example 6, N-[4-(2-chlorophenyl)-6,7-dihydro-5H-cyclopenta[1',2':5,4]thieno[2,3-b]pyridin-3-yl]-N'-(2,4-difluorophenyl)urea] | 96.3
11 | O=C(Nc1cnc2sc3c(c2c1-c1ccccc1Cl)CCC3)c1ccc(F)cc1F [Example 7, 4-(2-chlorophenyl)-3-(2,4-difluorobenzoylamino)-6,7-dihydro-5H-cyclopenta[1',2':5,4]thieno[2,3-b]pyridine] | 34.4
12 | CCc1cc2c(-c3ccccc3OC)c(NC(=O)Nc3cc(C)c(OC(C)=O)c(C)c3)cnc2s1 [Example 13, N-(4-acetoxy-3,5-dimethylphenyl)-N'-[2-ethyl-4-(2-methoxyphenyl)thieno[2,3-b]pyridin-5-yl]urea] | 97.5
13 | CCc1cc2c(-c3ccccc3OC)c(NC(=O)Nc3cc(OC)c(OC(C)=O)c(OC)c3)cnc2s1 [Example 14, N-(4-acetoxy-3,5-dimethoxyphenyl)-N'-[2-ethyl-4-(2-methoxyphenyl)thieno[2,3-b]pyridin-5-yl]urea] | 91.9

target: T1, acyl-CoA: cholesterol acyltransferase (ACAT); test: as above; format: biochemical, Spregue-Dawley male rat; conditions: 0.5 × 10^-6 M; read-out: ACAT inhibitory rate (labeled cholesterol ester formation inhibitory rate)

Row | inhibition at 0.5 µM [%] | SMILES
14 | 82.3 | O=C(Nc1ccc(F)cc1F)Nc1cnc2sc3c(c2c1-c1ccccc1Cl)CCCC3 [Example 12, N-[4-(2-chlorophenyl)-5,6,7,8-tetrahydro[1]-benzothieno[2,3-b]pyridin-3-yl]-N'-(2,4-difluorophenyl)urea]

— patent US5256782A, “Thienopyridine derivatives which are intermediates” (Takeda Chemical Industries, Ltd., priority 1990, dated 1993)
